From ChEMBL document CHEMBL3885861, “Open TG-GATES”

Species on record: Rattus norvegicus
Assay: Open TG-GATES - Regimen: Single
Format: toxicity, organism-based, Sprague-Dawley
Set-up: regimen Single, gender Male, age 6 weeks
Details: in vivo, po, 100 mg/kg, route gavage, dose level Low; for APTT / Bas / Eos / Fbg / Hb / Ht / Lym / MCH / MCHC / MCV / Mono / Neu / PT / Plat / RBC / Ret / WBC: tissue Blood; for KIDNEY_L / KIDNEY_R / KIDNEY_TOTAL: tissue Kidney; for LIVER: tissue Liver; for A/G / ALP / ALT / AST / BUN / CRE / Ca / Cl / DBIL / GLC / IP / K / LDH / Na / PL / RALB / TBIL / TC / TG / TP / gamma-GTP: tissue Plasma

## CC(C)(S)[C@@H](N)C(=O)O [PENICILLAMINE]
3 h
  TERMINAL_BW: 201.7 g
  APTT: 15.4 s
  Bas: 0%
  Eos: 1%
  Fbg: 283 mg/dL
  Hb: 13.5 g/dL
  Ht: 41.8%
  Lym: 79.2%
  MCH: 20.5 pg
  MCHC: 32.4%
  MCV: 63.4 fL
  Mono: 2.8%
  Neu: 16.4%
  PT: 15 s
  Plat: 118.1 x10_4/uL
  RBC: 659.6 x10_4/ul
  Ret: 9.3%
  WBC: 78.7 x10_2/uL
  KIDNEY_L: 0.9 g
  KIDNEY_R: 0.9 g
  KIDNEY_TOTAL: 1.8 g
  LIVER: 8.7 g
  A/G: 1
  ALP: 1342 IU/L
  ALT: 42.6 IU/L
  AST: 74.4 IU/L
  BUN: 9.6 mg/dL
  CRE: 0.2 mg/dL
  Ca: 10.8 mg/dL
  Cl: 106.6 meq/L
  DBIL: 0.012 mg/dL
  GLC: 186.8 mg/dL
  IP: 8.2 mg/dL
  K: 4.3 meq/L
  LDH: 61.2 IU/L
  Na: 142.2 meq/L
  PL: 139 mg/dL
  RALB: 2.6 g/dL
  TBIL: 0.036 mg/dL
  TC: 74.4 mg/dL
  TG: 63.6 mg/dL
  TP: 5.3 g/dL
  gamma-GTP: 1 IU/L
6 h
  TERMINAL_BW: 200.9 g
  APTT: 18.6 s
  Bas: 0%
  Eos: 1%
  Fbg: 310 mg/dL
  Hb: 13.4 g/dL
  Ht: 41.5%
  Lym: 74.8%
  MCH: 20.6 pg
  MCHC: 32.2%
  MCV: 63.9 fL
  Mono: 3%
  Neu: 20.6%
  PT: 14.7 s
  Plat: 117.7 x10_4/uL
  RBC: 651 x10_4/ul
  Ret: 9.1%
  WBC: 91.5 x10_2/uL
  KIDNEY_L: 0.9 g
  KIDNEY_R: 0.9 g
  KIDNEY_TOTAL: 1.8 g
  LIVER: 8.2 g
  A/G: 0.9
  ALP: 1252 IU/L
  ALT: 38 IU/L
  AST: 76 IU/L
  BUN: 7.2 mg/dL
  CRE: 0.2 mg/dL
  Ca: 10.7 mg/dL
  Cl: 106.6 meq/L
  DBIL: 0.01 mg/dL
  GLC: 175.4 mg/dL
  IP: 8.7 mg/dL
  K: 4 meq/L
  LDH: 63.8 IU/L
  Na: 143 meq/L
  PL: 138.2 mg/dL
  RALB: 2.5 g/dL
  TBIL: 0.038 mg/dL
  TC: 78.8 mg/dL
  TG: 44.6 mg/dL
  TP: 5.2 g/dL
  gamma-GTP: 1.2 IU/L
9 h
  TERMINAL_BW: 200 g
  APTT: 15.2 s
  Bas: 0%
  Eos: 0.8%
  Fbg: 315.8 mg/dL
  Hb: 13.3 g/dL
  Ht: 41.2%
  Lym: 78%
  MCH: 20.5 pg
  MCHC: 32.3%
  MCV: 63.6 fL
  Mono: 2.2%
  Neu: 18.4%
  PT: 14.3 s
  Plat: 124 x10_4/uL
  RBC: 647.4 x10_4/ul
  Ret: 9%
  WBC: 74.3 x10_2/uL
  KIDNEY_L: 0.9 g
  KIDNEY_R: 0.9 g
  KIDNEY_TOTAL: 1.8 g
  LIVER: 7.9 g
  A/G: 0.9
  ALP: 1373.8 IU/L
  ALT: 40 IU/L
  AST: 68.6 IU/L
  BUN: 9.6 mg/dL
  CRE: 0.2 mg/dL
  Ca: 10.7 mg/dL
  Cl: 106.4 meq/L
  DBIL: 0.008 mg/dL
  GLC: 166.2 mg/dL
  IP: 10 mg/dL
  K: 4 meq/L
  LDH: 54.4 IU/L
  Na: 143.2 meq/L
  PL: 137 mg/dL
  RALB: 2.6 g/dL
  TBIL: 0.034 mg/dL
  TC: 79.6 mg/dL
  TG: 45 mg/dL
  TP: 5.4 g/dL
  gamma-GTP: 1.2 IU/L
24 h
  TERMINAL_BW: 219.1 g
  APTT: 16.6 s
  Bas: 0%
  Eos: 0.8%
  Fbg: 272.4 mg/dL
  Hb: 13 g/dL
  Ht: 40%
  Lym: 78.6%
  MCH: 20.8 pg
  MCHC: 32.4%
  MCV: 64.2 fL
  Mono: 2.8%
  Neu: 16.8%
  PT: 14.2 s
  Plat: 125.3 x10_4/uL
  RBC: 623.4 x10_4/ul
  Ret: 8%
  WBC: 90.1 x10_2/uL
  KIDNEY_L: 0.9 g
  KIDNEY_R: 0.9 g
  KIDNEY_TOTAL: 1.9 g
  LIVER: 10.4 g
  A/G: 0.9
  ALP: 1649.2 IU/L
  ALT: 45 IU/L
  AST: 70.4 IU/L
  BUN: 13.4 mg/dL
  CRE: 0.2 mg/dL
  Ca: 11 mg/dL
  Cl: 104.4 meq/L
  DBIL: 0.012 mg/dL
  GLC: 178.6 mg/dL
  IP: 7.9 mg/dL
  K: 4 meq/L
  LDH: 81.6 IU/L
  Na: 143.2 meq/L
  PL: 155.2 mg/dL
  RALB: 2.7 g/dL
  TBIL: 0.026 mg/dL
  TC: 81.6 mg/dL
  TG: 93.6 mg/dL
  TP: 5.5 g/dL
  gamma-GTP: 1 IU/L
